From patent US10251841B2, “Polymeric depots for localization of agent to biological sites” (TRUSTEES OF BOSTON UNIVERSITY, priority 2011, dated 2019)

Assays:
Experiment in all cases: Cell proliferation assay, MTT, 5 days
Conditions in all cases: media containing 10% FBS
[1] = tested on: Calu6 (human lung cancer); format: cell-based
Protocol: (§1) Melanoma B16 (murine), Calu 6 (human lung carcinoma), A549 (human lung carcinoma), LLC (murine Lewis Lung Carcinoma), NCI-H460 (human lung), MSTO-211H (human mesothelioma), MSTO-211H-Luc (luciferase transfected human mesothelioma), MCF7 (human breast), LMS05 (human sarcoma) were incubated (37° C., 5% CO2) with MEM (with 10% fetal bovine serum (FBS), 1% essential amino acids, and 1% Penicillin/Streptomyocin with L glutamine (Pen/Strep), F-12 HAM (with 10% FBS and 1% Pen/Strep), DMEM (with 10% FBS and 1% Pen/Strep) media, or DMEM (with 10% FBS and 1% GPS), with media changes once every three days. When not cultured, all cell lines were stored in RPMI freezing media at −80° C. (with 50% FBS, 40% RPMI and 10% dimethyl sulfoxide (DMSO)). Cell lines were trypsinized from the plates and seeded into 96 well plates at a concentration of 3000 cells per well. All cell lines were cultured for a period of at least seven days before being tested in cell uptake or proliferation assays etc.
(§2) Cell proliferation assays testing the effects of paclitaxel encapsulated within nanoparticles were performed using three tumor cell lines. Lewis Lung Carcinoma (LLC), Melanoma, and Calu6 (human lung cancer) cell lines were plated at 3,000 cells/well and when established, cultured in media with/without paclitaxel. […] At the end of 5 days, tumor cell proliferation was assessed via MTT analysis. […]

[2] = tested on: Melanoma; format: cell-based, murine
Protocol: as §1, §2

[3] = tested on: Lewis Lung Carcinoma (LLC); format: cell-based, murine
Protocol: as §1, §2

Measured: concentration that reliably inhibits growth

CC(=O)O[C@H]1C(=O)[C@@]2(C)[C@H]([C@H](OC(=O)c3ccccc3)[C@]3(O)C[C@H](OC(=O)[C@H](O)[C@@H](NC(=O)c4ccccc4)c4ccccc4)C(C)=C1C3(C)C)[C@]1(OC(C)=O)CO[C@@H]1C[C@@H]2O [paclitaxel]
1 to 10 ng/mL: all assays above
